Test results: publication PMC9569954, “The Antidepressant-like Activity, Effects on Recognition Memory Deficits, Bioavailability, and Safety after Chronic Administration of New Dual-Acting Small Compounds Targeting Neuropsychiatric Symptoms in Dementia” (International Journal of Molecular Sciences, 2022)
Read-outs that look alike come from different tables or passages of the source.

How the values were obtained:
[1] = Pharmacokinetics and brain uptake after i.v. and i.g. administration; format: in vivo, male Wistar rats; conditions: rat; for half-life / Cmax / MRT / AUC(0-t) / C0 / clearance / bioavailability / Tmax / Kp / Vd: male, Wistar; for half-life: in vivo, elimination from body, route not stated; for bioavailability: i.g. 2 mg/kg vs i.v. 0.5 mg/kg, read-out: F (absolute bioavailability); for Kp: brain/plasma, read-out: Brain/Plasma ratio; for Vd: read-out: Vss
From the text: The compounds investigated, namely, PQA-AZ4 and PQA-AZ6 (UPLC/MS purity > 95%), were synthesized at the Department of Medicinal Chemistry, Jagiellonian University Medical College (synthesis described in [10]); PQ-10, (6,7-dimethoxy-4-[(3R)-3-(2-quinoxalinyloxy)-1-pyrrolidinyl]-quinazoline, was obtained from Sigma-Aldrich (St. Louis, MO, USA). For the studies, the compounds were suspended in 1% aqueous solution of Tween 80, while (+)-MK-801 (hydrogen maleate, Sigma-Aldrich, St. Louis, MO, USA) was dissolved in distilled water. In the behavioral studies, PQA-AZ4, PQA-AZ6, and PQ-10 were injected intraperitoneally (i.p.) once a day (between 9:00 AM and 10:00 AM) for 21 consecutive days at the minimum active doses selected previously, based on acute treatment and assessment in behavioral tests at a volume of 2 mL/kg body weight. The control groups received 1% aqueous solution of Tween 80 (Sigma-Aldrich, St. Louis, MO, USA) in the same schedule. For the pharmacokinetic study, PQA-AZ4 and PQA-AZ6 dissolved in 20% captizol (Ligand, San Diego, CA, USA) were administered intravenously (i.v.) and intragastrically (i.g.) at a dose of 0.5 and 2 mg/kg, respectively, while ketamine (50 mg/kg, (hydrochloride, Biowet Puławy, Puławy, Poland)) and xylazine (8 mg/kg, hydrochloride, Biowet Puławy, Poland)) were injected i.p.
HPLC grade methanol, acetonitrile and reagent grade formic acid, hydrochloric acid, potassium dihydrogen phosphate, orthophosphoric acid, and sodium chloride were purchased from Merck (Darmstadt, Germany). Tissues (control blood and brain) were obtained from adult male Wistar rats anesthetized by i.p. injection of 50 mg/kg ketamine plus 8 mg/kg xylazine, and blood samples were collected in heparinized tubes from the heart. Blood samples were collected at 0 (predose), 15, 60, 240, and 1440 min after compound administration. The plasma was separated by centrifugation (1000× g, 10 min). Plasma and brain were stored at −80 °C pending analysis. The LC/ESI-MS/MS experiments were performed on a UPLC ACQUITY H-Class PLUS/Xevo TQD (Waters Corporation, Milford, MA, USA) triple-quadrupole mass spectrometer equipped with an electrospray (ESI) ionization interface. Data acquisition and processing were accomplished using MassLynx data collection and integration software. For the chromatographic and mass spectrometric conditions, and sample pretreatment, please see the Supplementary Materials.
Pharmacokinetic parameters were calculated by a noncompartmental approach from the average concentration values, using Phoenix WinNonlin software (Certara, Princeton, NJ 08540 USA). The first-order elimination rate constant (λz) was calculated by linear regression of log concentration versus time. The area under the mean plasma and brain concentration versus time curve (AUC0→t) was calculated from zero to the last concentration point using the linear trapezoidal rule:(1) AUC0→t=∑i=1nCi+Ci+1/2·(ti+1−ti) where Ci is the concentration of the compound.
The area under the first-moment curve (AUMC0→t) was estimated by calculation of the total area under the first-moment curve:(2) AUMC0→t=∑i=1n((ti·Ci+ti+1·Ci+1)/2)·(ti+1−ti) where ti is the […].
Mean residence time (MRT) was calculated as:(3) MRT=AUMC0→t/AUC0→t
Systemic clearance (Cl) was calculated as:(4) Cl=Div/AUC0→t
The volume of distribution at steady state (Vss) was calculated as:(5) Vss=Div⋅AUMC0→t/(AUC0→t )^2
The absolute bioavailability (F) of PQA-AZ4 and PQA-AZ6 after i.g. administration was calculated as:(6) F(%)=AUCi.g./AUCi.v.⋅Di.v./Di.g.⋅100 where Di.v. and Di.g. are i.v. and i.g. doses of the studied molecules, respectively.
1. Methods in pharmacokinetic studies
Instrumentation and operating conditions
The LC/ESI-MS/MS experiments were performed on a UPLC ACQUITY H-Class PLUS/Xevo
TQD (Waters Corporation, USA) triple-quadrupole mass spectrometer equipped with an electrospray
(ESI) ionization interface. Data acquisition and processing were accomplished using MassLynx data […]

Bdnf gene = Bdnf gene expression in brain structures (RT-qPCR, ex vivo); set-up: species or system rats; conditions: rat, 1 mg/kg/day i.p., 21 days; for Bdnf expression upregulation vs control, hippocampus: hippocampus (Hipp); for Bdnf expression upregulation vs control, prefrontal cortex: prefrontal cortex (PFX)
Protocol: Animals in all treatment groups were sacrificed by rapid decapitation immediately after the behavioral tests, when the brains and blood samples were collected. For quantitative reverse transcription-polymerase chain reaction (RT-qPCR), the brains of rats were rapidly removed, and the hippocampus and prefrontal cortex were dissected on an ice-cold glass plate. The tissues were frozen in dry ice and stored at −80 °C until required.
The total RNA was extracted from tissues using an RNA Isolation kit (Thermo Fisher Scientific, Rockford, IL, USA), and its concentration was normalized to 20 ng/μL. Reverse transcription was performed with a High-Capacity Reverse Transcription Kit (Life Technologies, Grand Island, NY, USA). A qPCR fast 96-well reaction plate was used for the process with TaqMan Gene Expression assay (Life Technologies) for brain-derived neurotrophic factor Bdnf (Rn02531967_s1) on an Applied Biosystems® 7500 Fast Real-Time PCR Instrument (Applied Biosystems, Foster City, CA, USA), according to the manufacturer’s protocol. Glyceraldehyde-3-phosphate dehydrogenase, Gapdh (Rn01775763_g1), was selected as endogenous control, based on the pilot experiment. Relative normalized expression was calculated using the ΔΔCq method.

5-HT1AR = target: 5-HT1AR; set-up: method as in PMID 35248836; conditions: read-out: Affinity 5-HT1AR Ki; cited from earlier work
5-HT7R = target: 5-HT7R; set-up: method as in PMID 35248836; conditions: read-out: Affinity 5-HT7R Ki; cited from earlier work
[2] = brain, iv, 0.5 mg/kg, i.v. 0.5 mg/kg
[3] = brain, po, 2 mg/kg, i.g. 2 mg/kg
[4] = plasma, iv, 0.5 mg/kg, i.v. 0.5 mg/kg, plasma
[5] = plasma, po, 2 mg/kg, i.g. 2 mg/kg

Compound	half-life [1]	Cmax ([1]; iv, i.v. 0.5 mg/kg, brain)	MRT ([1]; iv, i.v. 0.5 mg/kg, brain)	AUC(0-t) ([1]; iv, i.v. 0.5 mg/kg, plasma)	C0 ([1]; iv, i.v. 0.5 mg/kg, plasma)	MRT ([1]; iv, i.v. 0.5 mg/kg, plasma)	clearance ([1]; iv, i.v. 0.5 mg/kg, plasma)	bioavailability ([1]; plasma, oral)	Cmax ([1]; po, i.g. 2 mg/kg, brain)	MRT ([1]; po, i.g. 2 mg/kg, brain)	AUC(0-t) ([1]; po, i.g. 2 mg/kg, plasma)	Cmax ([1]; po, i.g. 2 mg/kg, plasma)	MRT ([1]; po, i.g. 2 mg/kg, plasma)	Tmax [1, 2]	Tmax [1, 3]	Kp ([1]; iv, 0.5 mg/kg, i.v. 0.5 mg/kg)	Kp ([1]; po, 2 mg/kg, i.g. 2 mg/kg)	Vd [1, 4]	Tmax [1, 5]	Brain/Plasma ratio ([1]; i.g. 2 mg/kg)	other results
COc1cccc(N2CCN(CC3CCN(c4ncnc5cc(OC)c(OC)cc45)C3)CC2)c1 (stereo not shown) [PQA-AZ4, 6,7-Dimethoxy-4-(3-((4-(3-methoxyphenyl)piperazin-1-yl)methyl)pyrrolidin-1-yl)quinazoline]	~1 h	149 ng/g	3.1 h	714 ng·h/mL	431 ng/mL	0.958 h	10.8 mL/min/kg	8.29%	71.4 ng/g	3.58 h	118 ng·h/mL	46.7 ng/mL	1.38 h	0.25 h	1 h	0.9	5.7	0.8 L/kg	≤ 1 h	5.68	bioavailability ([1]; plasma, po): 8.3%; AUC0→t ([1]; i.g. 2 mg/kg, brain): 40,314 ng·min/g; t0.5 ([1]; i.g. 2 mg/kg, brain): 214 min; t0.5 ([1]; i.g. 2 mg/kg, plasma): 92 min; AUC0→t ([1]; i.v. 0.5 mg/kg, brain): 40,806 ng·min/g; t0.5 ([1]; i.v. 0.5 mg/kg, brain): 220 min; t0.5 ([1]; i.v. 0.5 mg/kg, plasma): 67.3 min; Bdnf expression upregulation vs control, hippocampus (Bdnf gene): about 2.8 fold; Bdnf expression upregulation vs control, prefrontal cortex (Bdnf gene): about 10 fold; Ki (5-HT1AR): 18 nM; Ki (5-HT7R): 234 nM
COc1cc2ncnc(N3CCC(CN4CCN(c5ccc(Cl)cc5)CC4)C3)c2cc1OC (stereo not shown) [PQA-AZ6, 4-(3-((4-(4-Chlorophenyl)piperazin-1-yl)methyl)pyrrolidin-1-yl)-6,7-dimethoxyquinazoline]	~1 h	113 ng/g	7.4 h	93.6 ng·h/mL	102 ng/mL	0.742 h	85.2 mL/min/kg	38.4%	342 ng/g	12 h	144 ng·h/mL	99.5 ng/mL	1.11 h	0.25 h	0.25 h	8.6	5.3	~4.7 L/kg	0.25 h	5.29	AUC0→t ([1]; i.g. 2 mg/kg, brain): 45,623 ng·min/g; t0.5 ([1]; i.g. 2 mg/kg, brain): 1928 min; t0.5 ([1]; i.g. 2 mg/kg, plasma): 216.8 min; AUC0→t ([1]; i.v. 0.5 mg/kg, brain): 48,321 ng·min/g; t0.5 ([1]; i.v. 0.5 mg/kg, brain): 597 min; t0.5 ([1]; i.v. 0.5 mg/kg, plasma): 54.2 min; Bdnf expression upregulation vs control, hippocampus (Bdnf gene): about 33 fold; Bdnf expression upregulation vs control, prefrontal cortex (Bdnf gene): ~12 fold; Ki (5-HT1AR): 346 nM; Ki (5-HT7R): 136 nM
